pIC50: −log10 of the molar value. Where two headings read alike, the source gives them in different places.
What was measured:
PTJ64i [1] = assay: MTT cell viability assay, PTJ64i; type: cell-based; conditions: for Selectivity Index (SI): IC50 in normal (HFF-1) fibroblast cells/IC50 in PTJ64i; for pIC50: PTJ64i paraganglioma, MTT, 72 h
Protocol: (§1) Compounds 4a–p were submitted to a preliminary MTT assay at a one-point screening concentration of 75 μM for 72 h, including 2b as a reference compound (Figure 3). […] The presence of the electron-donating methoxy group decreased the activity of 2b, in both the para and meta positions. […] Specifically, these compounds, namely 4d, 4e, 4f, 4h, 4i, 4j, 4k, 4l, and 4m, were tested at concentrations of 3, 6, 12 and 24 µM for 72 h. In addition, the nine compounds, together with 2b, were tested against human fibroblasts HFF-1, in order to evaluate their selectivity against tumor cells, as compared to normal cells. Effects on cancer or normal cell viability were extrapolated from concentration–response curves and are expressed as IC50 values in Table 2.
(§2) Pancreatic cancer (AsPC-1, BxPC-3, and Capan-2), paraganglioma (PTJ86i and PTJ64i) and normal fibroblast (HFF-1) cell lines were cultured as previously described. All compounds were dissolved in DMSO (stock solutions) and then diluted in culture media to the final working concentrations. In this way, the solutions were completely clear and devoid of any undissolved material by microscopic inspection. […] The effects of compounds 4a-p and 2b on cancer cell viability were tested by an MTT assay (Sigma-Aldrich, St. Louis, MO, USA), as described by Florio et al.. In the initial screening all compounds were tested at a one-point screening concentration of 75 μM for 72 h (five replica wells per each condition). […] For combined treatments, the experimental design was made according to the Chou–Talalay method for drug combination studies, as previously described.
(§3) IC50 values were extrapolated from concentration–response curves and calculated using the CompuSyn software. […] Based on this analysis, a CI < 1 indicates synergism, a CI = 1 indicates additive effects and a CI > 1 indicates antagonism. SI values were calculated as previously described. Comparisons of mean values were performed using an unpaired Student’s t-test. For multiple comparisons, a one-way ANOVA followed by Dunnett’s test were employed. A p-value < 0.05 was estimated as statistically significant.

PTJ86i [2] = assay: MTT cell viability assay, PTJ86i; type: cell-based; conditions: for Selectivity Index (SI): IC50 in normal (HFF-1) fibroblast cells/IC50 in PTJ86i; for pIC50: PTJ86i paraganglioma, MTT, 72 h
Protocol: as §1, §2, §3

HFF-1 = assay: MTT cell viability assay, normal fibroblasts HFF-1; type: cell-based, human; conditions: Homo sapiens; HFF-1 normal cells, MTT, 72 h
Protocol: All compounds were dissolved in DMSO (stock solutions) and then diluted in culture media to the final working concentrations. […] The effects of compounds 4a-p and 2b on cancer cell viability were tested by an MTT assay (Sigma-Aldrich, St. Louis, MO, USA), as described by Florio et al. [17]. In the initial screening all compounds were tested at a one-point screening concentration of 75 μM for 72 h (five replica wells per each condition).
IC50 values were extrapolated from concentration–response curves and calculated using the CompuSyn software [45]. […] SI values were calculated as previously described [46]. Comparisons of mean values were performed using an unpaired Student’s t-test. For multiple comparisons, a one-way ANOVA followed by Dunnett’s test were employed. A p-value < 0.05 was estimated as statistically significant.

Capan-2 = assay: MTT cell viability assay, Capan-2; type: cell-based; conditions: for pIC50: Homo sapiens, Capan-2 pancreatic cancer, MTT, 72 h; for Selectivity Index (SI): IC50 in normal (HFF-1) fibroblast cells/IC50 in Capan-2
Protocol: as §1, §2, §3

[3] = test system: pancreatic (AsPC-1, BxPC-3, and Capan-2) and paraganglioma (PTJ64i and PTJ86i) cancer cell lines; assay: One-point MTT screening at 75 µM in cancer cell lines; type: cell-based; conditions: one-point screening concentration of 75 μM for 72 h, five cancer cell lines
Protocol: as §1, §2
Figure 3 Screening of the effects of novel derivatives (4a–p) on the viability of pancreatic (AsPC-1, BxPC-3, and Capan-2) and paraganglioma (PTJ64i and PTJ86i) cancer cell lines. The lead compound 2b was included as a reference and the histograms show the relative decrease of cancer cell viability observed after treatments, as compared to 2b. Cell viability was assessed by an MTT assay using compounds at 75 µM for 72 h. Data shown are the means ± SD of duplicate experiments with quintuplicate determinations and are calculated as ratios relative to the reference compound 2b (dashed line).

BxPC-3 = assay: MTT cell viability assay, BxPC-3; type: cell-based; conditions: for pIC50: Homo sapiens, BxPC-3 pancreatic cancer, MTT, 72 h; for Selectivity Index (SI): IC50 in normal (HFF-1) fibroblast cells/IC50 in BxPC-3
Protocol: as §1, §2, §3

AsPC-1 = assay: MTT cell viability assay, AsPC-1; type: cell-based; conditions: for pIC50: Homo sapiens, ASPC1, AsPC-1 pancreatic cancer, MTT, 72 h; for Selectivity Index (SI): IC50 in normal (HFF-1) fibroblast cells/IC50 in AsPC-1
Protocol: as §1, §2, §3

PTJ64i [4] = test system: PTJ64i; set-up: method as in PMID 28594934; conditions: PTJ64i paraganglioma, previously published; cited from earlier work
PTJ86i [5] = test system: PTJ86i; set-up: method as in PMID 28594934; conditions: PTJ86i paraganglioma, previously published; cited from earlier work

SMILES | melting point [°C] | Selectivity Index (SI) (PTJ64i [1]) | pIC50 (PTJ64i [1]) | Selectivity Index (SI) (PTJ86i [2]) | pIC50 (PTJ86i [2]) | pIC50 (HFF-1) | pIC50 (Capan-2) | Selectivity Index (SI) (Capan-2) | effect on cancer cell viability, potency compared with 2b [3] | pIC50 (BxPC-3) | Selectivity Index (SI) (BxPC-3) | pIC50 (AsPC-1) | Selectivity Index (SI) (AsPC-1) | pIC50 (PTJ64i [4]) | pIC50 (PTJ86i [5])
O=C(Nc1cccc([N+](=O)[O-])c1)C(Sc1nc2cc(Cl)ccc2s1)c1ccccc1 (stereo not shown) [4k, 2-[(5-Chlorobenzo[d]thiazol-2-yl)thio]-N-(3-nitrophenyl)-2-phenylacetamide] | 193 to 195 | 3.12 | 5.13 | 1.73 | 4.87 | 4.63 | 4.77 | 1.38 | greater antiproliferative activity than 2b | 4.92 | 1.96 | 5.00 | 2.31 |  | 
O=C(Nc1ccc([N+](=O)[O-])cc1)C(Sc1nc2cc(Cl)ccc2s1)c1ccccc1 (stereo not shown) [4e, 2-[(5-Chlorobenzo[d]thiazol-2-yl)thio]-N-(4-nitrophenyl)-2-phenylacetamide] | 191 to 193 | 1.70 | 5.01 | 0.88 | 4.72 | 4.78 | 4.85 | 1.18 | greater antiproliferative activity than 2b | 4.97 | 1.56 | 4.89 | 1.31 |  | 
O=C(Nc1ccccc1)C(Sc1nc2cc(Cl)ccc2s1)c1ccccc1 (stereo not shown) [2b, reference compound] |  | 2.52 |  | 1.28 |  | 4.67 | 4.71 | 1.09 |  | 4.82 | 1.43 | 4.91 | 1.72 | 5.07 | 4.78

— article PMC9412555, “Benzothiazole Derivatives Endowed with Antiproliferative Activity in Paraganglioma and Pancreatic Cancer Cells: Structure–Activity Relationship Studies and Target Prediction Analysis” (Pharmaceuticals, 2022)
